US8628961B2, “Small molecule antagonists of phosphatidylinositol-3,4,5-triphosphate (PIP3) and uses thereof” (Tufts University, priority 2010, dated 2014)

Columns and labels:
[1] = test system: differentiated HL-60 cells; assay: fMLP-stimulated cell polarization; format: cell-based; conditions: 100 μM, 2 hr
Experimental: In another set of experiments, the ability of PITs to inhibit fMLP-stimulated HL-60 cell polarization was examined. Differentiated HL-60 cells were treated with PIT-1, PIT-2, PIT-1i-1, or PIT-1i-2, each at 100 μM for 2 hr, followed by stimulation with 100 nM fMLP for 3 min. Actin was stained and analyzed using fluorescent microscopy. The number of the polarized cells was counted in five random fields.

[2] = test system: Bax/Bak double knockout cells; assay: Cell killing in Bax/Bak double knockout versus wild-type cells; format: cell-based, mouse
Experimental: Human and mouse cancer cell lines (U87MG, SUM159, A549, MDA-MB-231, 4T1, B16-F10) and human umbilical vein endothelial cells (HUVEC) were purchased from the American Type Culture Collection (Rockville, Md., USA). Mouse adult lung fibroblasts (Akt-deficient and Akt1-expressing) were a generous gift of Dr. Philip Tsichlis (Tufts University). Maroulakou I et al. (2007) Cancer Res 67:167-77. Bax/Bak double knockout mouse embryonic fibroblasts (Wei M C et al. (2001) Science 292:727-30) and matched wild-type cells were a generous gift of Dr. Stanley Korsmeyer (Dana-Farber Cancer Center). B16-F10, U87MG, 4T1, A549, MDA-MB-231 and fibroblast cells were cultured in DMEM medium with 10% fetal bovine serum (FBS). SUM159 was maintained in Ham's F-12 medium with 5% FBS, 5 μg/ml insulin, and 1 μg/ml hydrocortisone. HUVEC cells were cultured in M199 medium with 20% FBS, 20 μg/ml ECGS, and 50 μg/ml heparin. All media were supplemented with 100 units/ml penicillin, 100 μg/ml streptomycin, and 2 mM glutamine. All cells were cultured in a humidified atmosphere of 95% air and 5% CO2 at 37° C.
Since PI3K/PIP3/Akt signaling plays a critical role in the inhibition of apoptosis (Datta S R et al. (1999) Genes Dev 13:2905-27), the possibility that PITs induce apoptosis was examined. […] Proapoptotic Bcl-2 family members Bax and Bak are important mediators of apoptosis. Wei M C et al. (2001) Science 292:727-30. […]

[3] = molecular target: Bcl-xL (Homo sapiens (Human), UniProt Q07817); assay: NMR HSQC specificity control; format: binding
Chain of Bcl-xL (Q07817 whole entry, species assumed): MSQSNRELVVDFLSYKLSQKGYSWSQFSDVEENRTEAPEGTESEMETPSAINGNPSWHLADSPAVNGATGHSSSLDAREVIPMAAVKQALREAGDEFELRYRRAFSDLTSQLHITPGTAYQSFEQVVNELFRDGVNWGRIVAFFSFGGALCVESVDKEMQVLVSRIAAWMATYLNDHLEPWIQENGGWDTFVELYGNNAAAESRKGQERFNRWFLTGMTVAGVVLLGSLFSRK

SMILES: O=C(NC(=S)Nc1cc([N+](=O)[O-])cc(Cl)c1O)c1ccccc1 [PIT-1]
- fMLP-stimulated polarization of differentiated HL-60 neutrophils [1]: efficient inhibition
- killing of Bax/Bak double knockout compared with wild-type cells [2]: reduced in Bax/Bak double knockout cells
- changes in HSQC spectra of Bcl-xL [3]: did not elicit any changes
